{
  "source": "patent US12590965B2",
  "about": "“Palmitoyl protein biomarkers in purified extracellular vesicles for early identification of clinically significant prostate cancer” (priority 2012, dated 2026)",
  "key": {"[1]": {"system": "palmitoylation in PC3 cells", "experiment": "Immunoblot of protein abundance in PC3 L- and S-EVs after inhibition of palmitoylation", "format": "cell-based", "description": "(§1) The PC3 cell line was obtained from the American Type Culture Collection (ATCC). The DU145DIAPH3-KD cell line, stably transfected with DIAPH3 shRNA, was generated in our laboratories. PC3 and DU145DIAPH3-KD cell lines were cultured in DMEM (Invitrogen). All cells were supplemented with 10% foetal bovine serum (Denville Scientific), 2 mM L-glutamine (Invitrogen) and 1% PenStrep (Invitrogen). DU145DIAPH3-KD cells were additionally selected with 2 μg/mL puromycin as described. All cells were grown at 37° C. and 5% CO2. Cell viability of the EV-producer cells was tested with the 0.4% Trypan Blue (Sigma) exclusion method. All cell lines were routinely tested for mycoplasma contamination by using the MycoAlert PLUS Mycoplasma Detection Kit (Lonza). Finally, in order to collect EVs from cells in which palmitoylation was inhibited, PC3 cells were treated for 24 hours with 2-bromohexadecanoic acid (Sigma), also known as 2-bromopalmitate (0.5, 1, 5, 10, 20, 50 and 100 μM), in serum-starvation.\nThe isolation of EVs was conducted as previously described with minor modifications (Vagner et al. Large extracellular vesicles carry most of the tumour DNA circulating in prostate cancer patient plasma. J Extracell Vesicles. 2018; 7(1):1505403; Minciacchi et al. Large oncosomes contain distinct protein cargo and represent a separate functional class of tumor-derived extracellular vesicles. Oncotarget. 2015; 6(13):11327-11341; Minciacchi et al. MYC mediates large oncosome-induced fibroblast reprogramming in prostate cancer. Cancer Res. 2017; 77(9):2306-2317). Cells were grown on 18×150 cm^2-cell culture plates (Corning) until 90% confluence, washed in PBS and serum-starved for 24 hours before the collection of conditioned cell media. The conditioned media was cleared by differential centrifugation of floating cells at 300 g, of cell debris at 2,800 g for 10 min, and spun in an ultracentrifuge at 10,000 g for 30 min (4° C., k-factor 2547.2) for the collection of L-EVs. The supernatant was then spun at 100,000 g for 60 min (4° C., k-factor 254.7) for the collection of S-EVs. Both 10,000 g and 100,000 g pellets were then subjected to Optiprep™ (Sigma) density gradient purification. Fresh pelleted EVs were resuspended in 0.2 μm-filtered PBS and deposited at the bottom of an ultracentrifuge tube. […]\nImmunoblotting analysis was performed as described (Zhou et al. Low-background Acyl-biotinyl exchange largely eliminates the co-isolation of non-S-Acylated proteins and enables deep S-Acylproteomic analysis. Anal Chem. 2019; 91(15):9858-9866). […] Densitometric quantification of films was performed with the ImageJ software (v1.52a). […]"}, "PC3 cells": {"system": "PC3 cells", "experiment": "Titration of 2-bromopalmitate to a non-toxic concentration in PC3 cells", "format": "cell-based", "details": "24 hours, serum-starvation", "description": "as §1\nFinally, we investigated if palmitoylation had any influence on the localization of select proteins in EVs. To do so, we titrated the concentration of 2-bromopalmitate (2-BP), a general inhibitor of palmitoylation, to a non-toxic concentration of 10 μM in PC3 cells (data not shown) in order to avoid any alterations in the EV shedding (FIG. 18(d)) and recovery of EV-protein (FIG. 18(e)). […]"}, "[2]": {"details": "10 μM 2-BP for 24 h, PC3 L- and S-EVs"}},
  "note": "“Also recorded” adds a separate entry of the source.",
  "data": [
    {"compound": "CCCCCCCCCCCCCCC(Br)C(=O)O", "note": "(centres unmarked) [2-BP, 2-bromohexadecanoic acid]", "values": [
      {"measurement": "ABCC4 in EVs", "setting": "[1]; [2]", "value": "decrease; also recorded: reduced"},
      {"measurement": "STEAP1 in EVs", "setting": "[1]; [2]", "value": "decrease"},
      {"measurement": "STEAP2 in EVs", "setting": "[1]; [2]", "value": "decrease; also recorded: reduced"},
      {"measurement": "Cav-1 levels in EVs", "setting": "[1]; 10 μM 2-BP, PC3 EVs", "value": "did not change; also recorded: did not alter the localization"},
      {"measurement": "non-toxic concentration", "setting": "PC3 cells", "value": 10, "unit": "µM"}
    ]}
  ]
}
